Assay results reported in patent US12286443B2, “Bycyclic JAK inhibitors and uses thereof” (Insilico Medicine IP Limited, priority 2019, dated 2025).

Tests used:
[1] = system: Hut-78 cells; assay: Inhibition in Hut-78 cells (IL-2 stimulated, HTRF); format: cell-based; conditions: Homo sapiens, HuT78; compound 2 hours at 37° C., then IL-2 100 ng/mL 10 min; HTRF; read-out: Hut-78 cells IC50
Method: Exemplary compounds were assayed to determine potency in inhibiting Hut-78 cells by determining IC50 values.
Hut-78 cells were cultures in IMDM+20% FBS medium. Cells were maintained in log phase before the assay. Cell pellets were collected and resuspended in serum-free and phenol-free RPMI 1640 medium. 40,000 cells/well (10 μL) were seeded in each well of a 384-well plate and incubated with and without compound for 2 hours at 37° C. and 5% C02. IL-2 was added (2 μL, final concentration 100 ng/mL) and the mixture was incubated for 10 min. Cells were lysed by adding 4 μL labeled antibodies and the mixture was incubated overnight. The plate was read using the HTRF protocol on an Envision plate reader. The data was analyzed using XL-fit software (Supplier: ID business solutions Ltd.; Software version: XL fit 5.0). Inhibition %=(Max−Sample value)/(Max−Min)*100.
In the table, “A” indicates an IC50 of less than 0.5 μM, “B” indicates an IC50 range from 0.5 μM to 1 μM; and “C” indicates an IC50 range from 1 μM to 10 μM. Also, “na” indicates data is not available.

[2] = molecular target: T1, JAK2 (Homo sapiens, UniProt O60674); assay: Inhibition of JAK2 kinase, LANCE Ultra TR-FRET assay; format: biochemical; conditions: 2x ATP 24 μM, 15 min pre-incubation, 90 min reaction, 23° C.
T1 construct: purchased Invitrogen PV4210
Method: (§1) Exemplary compounds were assayed to determine potency in inhibiting activity of JAK1-3 and TYK2 kinases by determining IC50 values.
(§2) The sources of test materials and equipment are as follows: JAK1 (Invitrogen, Cat. No PV4775), JAK2 (Invitrogen, Cat. No PV4210), JAK3 (Invitrogen, Cat. No PV4080), TYK2 (Invitrogen, Cat. No PR8440C), ATP (Sigma, Cat. No. A7699-1G), DMSO (Sigma, Cat. No. D2650), DTT (Sigma, Cat. No. 43815), 384 wells_compound plate (Greiner, Cat. No. 781280), 384 wells_assay plate (Perkin Elmer, Cat. No. 6007299), LANCE Ultra ULight™-JAK-1 peptide (Perkin Elmer, Cat. No. TRF0121), LANCET™ Eu-W1024 Anti-phosphotyrosine (PT66) (Perkin Elmer, Cat. No. AD0069), LANCET™ Detection Buffer(Perkin Elmer, Cat. No. CR97-100).
(§3) The concentrations of test compounds varied from 100 μM to 1.7 nM with 3-fold dilution, 11 points, in duplicates while the concentrations of the reference compound, Tofacitinib, varied from 1 μM to 0.017 nM with 3-fold dilution, 11 points, in duplicates.
(§4) The assay buffer contained 50 mM HEPES (pH 7.5), 0.01% Brij-35, 10 mM MgCl2, 1 mM EDTA, 2 mM DTT. Incubations were carried out at 23° C.
(§5) Prior to the assay, enzyme, peptide substrate and serially diluted test compounds were pre-incubated together in assay buffer (5 μL) for 15 minutes (peptide substrate concentration: 50 nM; JAK enzyme concentrations: 2 nM JAK1; […]; […] and 4 nM TYK2). And the assay was initiated by the addition of 5 μL assay buffer containing 2× final ATP concentration (these are the 2×ATP concentrations: 76 μM JAK1; 24 μM JAK2; 8 μM JAK3 and 30 μM TYK2). Following the 90-minute incubation, antibody conjugated with Eu is dissolved in detection buffer to add into wells and then incubated for 60 minutes. The 10 μL detection buffer contains EDTA to stop the enzymatic reaction. The plate is analyzed by Perkin Elmer Envision on TR-FRET mode. The high ratio of 665/615 represents no inhibition of kinase reaction while the low ratio of 665/615 represents complete inhibition of kinase reaction.
(§6) Curves are fit by XLFIT5 as inhibition rate % vs. log [compound concentration] using 4 parameters logistic model 205.
(§7) In the table, “A” indicates an IC50 of less than 100 nM, “B” indicates an IC50 range from 100 nM to 500 nM; “C” indicates an IC50 range from 500 nM to 2 μM; and “D” indicates an IC50 greater than 2 μM. Also, “na” indicates data is not available.

[3] = molecular target: T2, TYK2 (Homo sapiens, UniProt P29597); assay: Inhibition of TYK2 kinase, LANCE Ultra TR-FRET assay; format: biochemical; conditions: 4 nM TYK2, 2x ATP 30 μM, 15 min pre-incubation, 90 min reaction, 23° C., read-out: tyk IC50
T2 construct: purchased Invitrogen PR8440C
Method: as §1, §2, §3, §4, §5, §6, §7

[4] = molecular target: T3, JAK1 (Homo sapiens, UniProt P23458); assay: Inhibition of JAK1 kinase, LANCE Ultra TR-FRET assay; format: biochemical; conditions: 2 nM JAK1, 2x ATP 76 μM, 15 min pre-incubation, 90 min reaction, 23° C.
T3 construct: purchased Invitrogen PV4775
Method: as §1, §2, §3, §4, §5, §6, §7

[5] = molecular target: T4, JAK3 (Homo sapiens, UniProt P52333); assay: Inhibition of JAK3 kinase, LANCE Ultra TR-FRET assay; format: biochemical; conditions: 2x ATP 8 μM, 15 min pre-incubation, 90 min reaction, 23° C.
T4 construct: purchased Invitrogen PV4080
T4 sequence (P52333 1-1124): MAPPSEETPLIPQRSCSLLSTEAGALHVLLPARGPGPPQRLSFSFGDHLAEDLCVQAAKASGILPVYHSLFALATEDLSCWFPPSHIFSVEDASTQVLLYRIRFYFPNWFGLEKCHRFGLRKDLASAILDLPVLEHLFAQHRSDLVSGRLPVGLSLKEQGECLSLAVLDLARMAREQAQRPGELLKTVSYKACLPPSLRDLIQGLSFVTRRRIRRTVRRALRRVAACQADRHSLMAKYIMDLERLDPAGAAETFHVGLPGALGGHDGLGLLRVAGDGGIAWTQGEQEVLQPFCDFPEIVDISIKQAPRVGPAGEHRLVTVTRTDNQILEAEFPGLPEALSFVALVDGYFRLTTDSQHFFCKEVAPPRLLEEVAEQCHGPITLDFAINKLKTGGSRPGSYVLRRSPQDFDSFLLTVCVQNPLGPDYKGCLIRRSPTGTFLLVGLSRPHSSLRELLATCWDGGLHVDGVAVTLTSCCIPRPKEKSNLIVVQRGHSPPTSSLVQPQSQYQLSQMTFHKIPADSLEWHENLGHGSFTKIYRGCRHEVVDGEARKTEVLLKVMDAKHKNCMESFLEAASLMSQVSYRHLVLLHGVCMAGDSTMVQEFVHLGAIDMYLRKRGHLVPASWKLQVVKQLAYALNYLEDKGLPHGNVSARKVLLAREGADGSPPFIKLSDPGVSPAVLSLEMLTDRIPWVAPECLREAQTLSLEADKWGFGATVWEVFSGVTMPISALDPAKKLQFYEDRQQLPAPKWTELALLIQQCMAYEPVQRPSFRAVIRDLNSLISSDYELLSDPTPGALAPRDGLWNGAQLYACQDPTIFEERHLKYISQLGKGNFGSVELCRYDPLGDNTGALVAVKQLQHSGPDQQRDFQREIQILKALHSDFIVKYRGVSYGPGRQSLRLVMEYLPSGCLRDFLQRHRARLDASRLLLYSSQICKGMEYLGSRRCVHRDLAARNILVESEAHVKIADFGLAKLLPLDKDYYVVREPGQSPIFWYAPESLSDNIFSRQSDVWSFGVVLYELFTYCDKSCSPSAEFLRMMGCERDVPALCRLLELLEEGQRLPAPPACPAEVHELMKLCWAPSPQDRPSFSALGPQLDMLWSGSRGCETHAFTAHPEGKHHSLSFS
Method: as §1, §2, §3, §4, §5, §6, §7

T2 sequence (P29597 whole entry): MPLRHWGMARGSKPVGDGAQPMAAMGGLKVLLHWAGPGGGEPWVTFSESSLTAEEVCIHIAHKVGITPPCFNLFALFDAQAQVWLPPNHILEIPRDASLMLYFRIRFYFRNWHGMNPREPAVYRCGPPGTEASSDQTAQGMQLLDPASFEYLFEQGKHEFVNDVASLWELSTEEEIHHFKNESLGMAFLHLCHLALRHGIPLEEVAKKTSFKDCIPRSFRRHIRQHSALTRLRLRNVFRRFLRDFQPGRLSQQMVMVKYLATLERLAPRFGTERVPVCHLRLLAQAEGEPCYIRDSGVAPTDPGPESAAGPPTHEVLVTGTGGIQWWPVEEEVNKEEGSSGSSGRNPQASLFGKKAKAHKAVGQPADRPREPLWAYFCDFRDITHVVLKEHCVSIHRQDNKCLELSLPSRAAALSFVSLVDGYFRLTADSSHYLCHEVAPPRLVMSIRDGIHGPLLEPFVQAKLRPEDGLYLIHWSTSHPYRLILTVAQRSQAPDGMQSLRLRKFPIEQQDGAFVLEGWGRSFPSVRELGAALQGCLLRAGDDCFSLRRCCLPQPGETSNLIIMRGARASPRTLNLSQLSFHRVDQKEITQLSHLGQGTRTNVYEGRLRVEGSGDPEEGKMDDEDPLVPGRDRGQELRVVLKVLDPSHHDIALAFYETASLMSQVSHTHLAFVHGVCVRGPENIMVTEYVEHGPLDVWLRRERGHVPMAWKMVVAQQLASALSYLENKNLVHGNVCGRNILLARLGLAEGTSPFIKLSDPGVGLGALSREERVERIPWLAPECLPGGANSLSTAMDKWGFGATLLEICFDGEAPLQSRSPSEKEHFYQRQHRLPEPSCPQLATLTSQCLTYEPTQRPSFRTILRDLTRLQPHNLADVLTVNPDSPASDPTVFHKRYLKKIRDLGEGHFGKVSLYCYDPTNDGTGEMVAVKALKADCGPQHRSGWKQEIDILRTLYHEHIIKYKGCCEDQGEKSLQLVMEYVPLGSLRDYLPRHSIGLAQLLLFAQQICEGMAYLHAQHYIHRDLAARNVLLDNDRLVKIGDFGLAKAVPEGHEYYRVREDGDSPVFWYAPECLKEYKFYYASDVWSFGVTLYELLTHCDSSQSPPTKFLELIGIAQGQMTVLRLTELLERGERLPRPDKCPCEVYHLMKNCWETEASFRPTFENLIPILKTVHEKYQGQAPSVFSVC
T3 sequence (P23458 whole entry): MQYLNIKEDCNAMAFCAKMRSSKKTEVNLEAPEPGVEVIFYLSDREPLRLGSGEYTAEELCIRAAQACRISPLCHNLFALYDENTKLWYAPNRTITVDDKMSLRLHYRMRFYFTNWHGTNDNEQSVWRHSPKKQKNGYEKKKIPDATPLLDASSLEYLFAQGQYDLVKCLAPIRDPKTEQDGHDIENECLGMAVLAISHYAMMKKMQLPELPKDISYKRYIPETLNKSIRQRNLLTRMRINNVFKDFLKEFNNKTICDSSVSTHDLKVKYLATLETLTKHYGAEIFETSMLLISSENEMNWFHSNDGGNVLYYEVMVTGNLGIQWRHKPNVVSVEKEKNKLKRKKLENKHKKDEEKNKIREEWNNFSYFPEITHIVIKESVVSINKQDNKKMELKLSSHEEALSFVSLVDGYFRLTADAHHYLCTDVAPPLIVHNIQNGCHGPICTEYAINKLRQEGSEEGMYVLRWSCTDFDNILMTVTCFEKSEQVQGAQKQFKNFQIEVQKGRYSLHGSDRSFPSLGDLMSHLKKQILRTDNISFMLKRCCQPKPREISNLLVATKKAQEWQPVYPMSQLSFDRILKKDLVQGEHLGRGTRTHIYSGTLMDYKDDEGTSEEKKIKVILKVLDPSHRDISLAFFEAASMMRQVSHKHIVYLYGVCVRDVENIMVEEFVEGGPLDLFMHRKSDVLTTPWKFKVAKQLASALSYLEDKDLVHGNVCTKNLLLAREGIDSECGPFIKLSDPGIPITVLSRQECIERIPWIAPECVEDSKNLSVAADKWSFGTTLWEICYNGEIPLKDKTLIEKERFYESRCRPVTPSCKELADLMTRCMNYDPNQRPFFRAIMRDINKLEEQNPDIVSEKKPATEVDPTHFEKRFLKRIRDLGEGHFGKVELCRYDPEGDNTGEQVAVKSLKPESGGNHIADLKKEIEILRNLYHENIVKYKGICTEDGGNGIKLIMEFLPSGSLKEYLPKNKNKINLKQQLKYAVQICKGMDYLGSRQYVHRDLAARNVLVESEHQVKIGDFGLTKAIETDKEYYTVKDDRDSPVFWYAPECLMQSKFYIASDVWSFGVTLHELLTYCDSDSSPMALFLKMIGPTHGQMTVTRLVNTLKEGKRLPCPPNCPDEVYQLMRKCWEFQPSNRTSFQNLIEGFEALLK
T1 sequence (O60674 whole entry): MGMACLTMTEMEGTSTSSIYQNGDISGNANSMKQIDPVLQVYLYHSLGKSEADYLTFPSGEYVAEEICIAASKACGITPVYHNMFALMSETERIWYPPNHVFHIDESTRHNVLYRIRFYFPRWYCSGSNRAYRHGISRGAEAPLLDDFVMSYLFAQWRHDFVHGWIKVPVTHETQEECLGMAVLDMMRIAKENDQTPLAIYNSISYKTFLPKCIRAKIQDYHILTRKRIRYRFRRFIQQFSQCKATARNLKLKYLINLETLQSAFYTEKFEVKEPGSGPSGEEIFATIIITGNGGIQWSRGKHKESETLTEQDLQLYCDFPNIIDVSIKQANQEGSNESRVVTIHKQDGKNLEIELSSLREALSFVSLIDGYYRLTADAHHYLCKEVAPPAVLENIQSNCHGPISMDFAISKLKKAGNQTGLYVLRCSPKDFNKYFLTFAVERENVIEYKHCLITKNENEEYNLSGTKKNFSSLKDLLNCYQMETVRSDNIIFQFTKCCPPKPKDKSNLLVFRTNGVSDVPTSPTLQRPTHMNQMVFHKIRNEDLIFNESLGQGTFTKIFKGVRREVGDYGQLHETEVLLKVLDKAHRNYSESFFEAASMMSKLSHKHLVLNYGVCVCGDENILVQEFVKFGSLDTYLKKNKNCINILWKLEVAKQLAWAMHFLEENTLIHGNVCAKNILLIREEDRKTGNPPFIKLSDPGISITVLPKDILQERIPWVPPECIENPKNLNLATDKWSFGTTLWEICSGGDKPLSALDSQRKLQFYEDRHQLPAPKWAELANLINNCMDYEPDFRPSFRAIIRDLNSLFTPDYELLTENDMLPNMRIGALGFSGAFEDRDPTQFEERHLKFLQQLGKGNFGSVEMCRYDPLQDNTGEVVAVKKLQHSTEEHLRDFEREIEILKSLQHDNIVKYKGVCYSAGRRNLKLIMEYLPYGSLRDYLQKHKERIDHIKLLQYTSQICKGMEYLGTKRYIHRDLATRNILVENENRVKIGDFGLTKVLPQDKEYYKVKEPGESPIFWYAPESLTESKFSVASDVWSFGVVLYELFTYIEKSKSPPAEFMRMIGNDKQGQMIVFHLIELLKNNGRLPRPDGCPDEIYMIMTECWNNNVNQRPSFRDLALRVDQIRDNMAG

| SMILES | IC50 [1] [nM] | IC50 [2] [nM] | IC50 [3] [nM] | IC50 [4] [nM] | IC50 [5] [nM] |
| --- | --- | --- | --- | --- | --- |
| O=C(NCC1CC1(F)F)c1noc2c1CN(c1ncnc3[nH]ccc13)CC2 (stereo not shown) [Compound 179] | 1000 to 10000 | 100 to 500 | > 2000 | 100 to 500 | < 100 |
| N#Cc1cn(C(=O)NCCC(F)(F)F)c2c1CCN(c1ncnc3[nH]ccc13)C2 [Compound 143] | 1000 to 10000 | 100 to 500 | 500 to 2000 | 100 to 500 | < 100 |
| COCCn1nc(C(=O)NCCC(F)(F)F)c2c1CCN(c1ncnc3[nH]ccc13)C2 [Compound 104] | 500 to 1000 | 100 to 500 | > 2000 | 100 to 500 | < 100 |
| O=C(NCCC(F)(F)F)c1n[nH]c2c1CN(c1ncnc3[nH]ccc13)CC2 [Compound 109] | 1000 to 10000 | 100 to 500 | 500 to 2000 | < 100 | < 100 |
| O=C(NCCC(F)(F)F)c1nn(Cc2ccncc2)c2c1CN(c1ncnc3[nH]ccc13)CC2 [Compound 105] | 500 to 1000 | 100 to 500 | > 2000 | 100 to 500 | < 100 |
| O=C(NCCC(F)(F)F)c1noc2c1CN(c1ncnc3[nH]ccc13)CC2 [Compound 110] | 500 to 1000 | < 100 | 100 to 500 | < 100 | < 100 |
| O=C(NCCC(F)(F)F)c1nn(C(=O)CCc2ccccc2)c2c1CN(c1ncnc3[nH]ccc13)CC2 [Compound 103] | 1000 to 10000 | 100 to 500 | > 2000 | 100 to 500 | < 100 |
| CCS(=O)(=O)n1nc(C(=O)NCCC(F)(F)F)c2c1CCN(c1ncnc3[nH]ccc13)C2 [Compound 102] | 1000 to 10000 | 100 to 500 | > 2000 | 500 to 2000 | < 100 |
| CS(=O)(=O)C(CCNC(=O)c1noc2c1CN(c1ncnc3[nH]ccc13)CC2)C(F)(F)F (stereo not shown) [Compound 170] |  | 100 to 500 | > 2000 | 100 to 500 | 100 to 500 |
| O=C(NCCC(F)(F)F)c1nn(CCc2cccnc2)c2c1CN(c1ncnc3[nH]ccc13)CC2 [Compound 106] |  | > 2000 | > 2000 | > 2000 | 100 to 500 |
| Cn1nc(C(=O)N[C@H]2C[C@H](C(=O)NCCC(F)(F)F)C2)c2c1CCN(c1ncnc3[nH]ccc13)C2 [Compound 124] |  | > 2000 | > 2000 | 500 to 2000 | 500 to 2000 |
| O=C(NCCCC1(O)CC1)c1noc2c1CN(c1ncnc3[nH]ccc13)CC2 [Compound 145] |  | 500 to 2000 | > 2000 | 100 to 500 | 100 to 500 |

Results, then the compound that gave them:

| IC50 [1] [nM] | IC50 [2] [nM] | IC50 [3] [nM] | IC50 [4] [nM] | IC50 [5] [nM] | SMILES |
| --- | --- | --- | --- | --- | --- |
| < 500 | < 100 | 500 to 2000 | < 100 | < 100 | O=C(N[C@H]1C[C@@](O)(C(F)(F)F)C1)c1noc2c1CN(c1ncnc3[nH]ccc13)CC2 [Compound 202] |
| 500 to 1000 | 100 to 500 | > 2000 | < 100 | < 100 | O=C(NCCC(F)(F)F)c1noc2c1CN(c1ncnc3[nH]ccc13)CC21CC1 [Compound 192] |
| < 500 | 100 to 500 | > 2000 | < 100 | < 100 | O=C(NC1CC(O)(C(F)(F)F)C1)c1noc2c1CN(c1ncnc3[nH]ccc13)CC2 (stereo not shown) [Compound 201] |
| 500 to 1000 | 100 to 500 | 500 to 2000 | 100 to 500 | < 100 | O=C(NCCC(F)(F)F)c1onc2c1CN(c1ncnc3[nH]ccc13)CC21CC1 [Compound 193] |
| < 500 | 100 to 500 | 500 to 2000 | < 100 | < 100 | O=C(NC1CC1C(F)(F)F)c1noc2c1CN(c1ncnc3[nH]ccc13)CC2 (stereo not shown) [Compound 182] |
| < 500 | < 100 | 100 to 500 | < 100 | < 100 | O=C(c1noc2c1CN(c1ncnc3[nH]ccc13)CC2)N1CC(C(F)(F)F)C1 [Compound 194] |
| < 500 | < 100 | 100 to 500 | < 100 | < 100 | O=C(NC(CO)CC(F)(F)F)c1noc2c1CN(c1ncnc3[nH]ccc13)CC2 (stereo not shown) [Compound 186] |
| < 500 | < 100 | 100 to 500 | < 100 | < 100 | O=C(NCC(O)C(F)(F)F)c1noc2c1CN(c1ncnc3[nH]ccc13)CC2 (stereo not shown) [Compound 190] |
| < 500 | 100 to 500 | 500 to 2000 | < 100 | < 100 | CC1(CNC(=O)c2noc3c2CN(c2ncnc4[nH]ccc24)CC3)CC(F)(F)C1 [Compound 199] |
| < 500 | 100 to 500 | > 2000 | < 100 | < 100 | O=C(NCC1CC(F)(F)C1)c1noc2c1CN(c1ncnc3[nH]ccc13)CC2 [Compound 198] |
